Data taken from the NIST ThermoML archive (doi:10.1021/acs.jced.8b00554).

Assay: xn = mol fraction of the nth substance listed
Details: Liquid, Vibrating tube method

CCCCCCCCCC [decane] + CCCO
mass density [kg/m3]
Details | 323.15 K | 333.15 K
100 kPa, x2 = 0.1391 | – | 698
100 kPa, x2 = 0.1907 | – | 699.22
100 kPa, x2 = 0.3001 | – | 702.36
100 kPa, x2 = 0.4326 | – | 706.94
100 kPa, x2 = 0.6863 | – | 723.34
100 kPa, x2 = 0.8711 | – | 744.53
1000 kPa, x2 = 0.8711 | – | 745.47
1010 kPa, x2 = 0.3001 | – | 703.4
1010 kPa, x2 = 0.4326 | – | 708.03
1010 kPa, x2 = 0.6863 | – | 724.38
1020 kPa, x2 = 0.1391 | – | 699.13
1020 kPa, x2 = 0.1907 | – | 700.31
2000 kPa, x2 = 0.1391 | – | 700.15
2000 kPa, x2 = 0.1907 | – | 701.33
2000 kPa, x2 = 0.6863 | – | 725.39
2010 kPa, x2 = 0.4326 | – | 709.06
2020 kPa, x2 = 0.3001 | – | 704.44
2020 kPa, x2 = 0.8711 | – | 746.44
3000 kPa, x2 = 0.3001 | – | 705.44
3010 kPa, x2 = 0.1391 | – | 701.15
3010 kPa, x2 = 0.1907 | – | 702.33
3010 kPa, x2 = 0.4326 | – | 710.06
3010 kPa, x2 = 0.6863 | – | 726.41
3010 kPa, x2 = 0.8711 | – | 747.43
4000 kPa, x2 = 0.1391 | – | 702.13
4000 kPa, x2 = 0.1907 | – | 703.34
4010 kPa, x2 = 0.4326 | – | 711.1
4010 kPa, x2 = 0.8711 | – | 748.4
4020 kPa, x2 = 0.3001 | – | 706.45
4020 kPa, x2 = 0.6863 | – | 727.43
5000 kPa, x2 = 0.1907 | – | 704.33
5000 kPa, x2 = 0.3001 | – | 707.44
5010 kPa, x2 = 0.1391 | – | 703.13
5010 kPa, x2 = 0.6863 | – | 728.46
5020 kPa, x2 = 0.4326 | – | 712.1
5020 kPa, x2 = 0.8711 | – | 749.4
6000 kPa, x2 = 0.1391 | – | 704.1
6000 kPa, x2 = 0.1907 | – | 705.29
6000 kPa, x2 = 0.3001 | – | 708.43
6010 kPa, x2 = 0.4326 | – | 713.11
6010 kPa, x2 = 0.6863 | – | 729.45
6020 kPa, x2 = 0.8711 | – | 750.38
7000 kPa, x2 = 0.1391 | – | 705.07
7000 kPa, x2 = 0.4326 | – | 714.11
7000 kPa, x2 = 0.8711 | – | 751.38
7010 kPa, x2 = 0.3001 | – | 709.43
7020 kPa, x2 = 0.1907 | – | 706.27
7020 kPa, x2 = 0.6863 | – | 730.46
8000 kPa, x2 = 0.1391 | – | 706.06
8000 kPa, x2 = 0.4326 | – | 715.11
8010 kPa, x2 = 0.1907 | – | 707.25
8010 kPa, x2 = 0.6863 | – | 731.46
8020 kPa, x2 = 0.3001 | – | 710.42
8020 kPa, x2 = 0.8711 | – | 752.35
9010 kPa, x2 = 0.1391 | – | 707
9010 kPa, x2 = 0.1907 | – | 708.23
9010 kPa, x2 = 0.3001 | – | 711.39
9010 kPa, x2 = 0.4326 | – | 716.11
9010 kPa, x2 = 0.6863 | – | 732.47
9010 kPa, x2 = 0.8711 | – | 753.31
10000 kPa, x2 = 0.1391 | – | 707.95
10000 kPa, x2 = 0.4326 | 726.96 | 717.1
10010 kPa, x2 = 0.3001 | – | 712.39
10010 kPa, x2 = 0.6863 | 743.54 | 733.45
10020 kPa, x2 = 0.1907 | – | 709.15
10020 kPa, x2 = 0.8711 | 764.05 | 754.28
11000 kPa, x2 = 0.1391 | 717.57 | –
11000 kPa, x2 = 0.1907 | 719.05 | 710.11
11010 kPa, x2 = 0.1391 | – | 708.9
11010 kPa, x2 = 0.3001 | 723.06 | –
11010 kPa, x2 = 0.4326 | 727.85 | –
11010 kPa, x2 = 0.6863 | 744.43 | 734.43
11020 kPa, x2 = 0.3001 | – | 713.35
11020 kPa, x2 = 0.4326 | – | 718.06
11020 kPa, x2 = 0.8711 | 764.93 | 755.24
12000 kPa, x2 = 0.1907 | – | 711.08
12000 kPa, x2 = 0.3001 | 723.94 | –
12000 kPa, x2 = 0.4326 | – | 719.03
12010 kPa, x2 = 0.1391 | 718.43 | 709.82
12010 kPa, x2 = 0.6863 | 745.32 | 735.38
12020 kPa, x2 = 0.1907 | 719.94 | –
12020 kPa, x2 = 0.3001 | – | 714.31
12020 kPa, x2 = 0.4326 | 728.74 | –
12020 kPa, x2 = 0.8711 | 765.79 | 756.17
13000 kPa, x2 = 0.1391 | 719.28 | –
13000 kPa, x2 = 0.8711 | – | 757.09
13010 kPa, x2 = 0.1391 | – | 710.75
13010 kPa, x2 = 0.1907 | 720.8 | 712
13010 kPa, x2 = 0.3001 | 724.81 | –
13010 kPa, x2 = 0.4326 | – | 719.98
13010 kPa, x2 = 0.6863 | 746.21 | 736.35
13020 kPa, x2 = 0.3001 | – | 715.25
13020 kPa, x2 = 0.4326 | 729.62 | –
13020 kPa, x2 = 0.8711 | 766.65 | –
14000 kPa, x2 = 0.1907 | – | 712.92
14000 kPa, x2 = 0.3001 | 725.66 | –
14000 kPa, x2 = 0.4326 | 730.47 | –
14000 kPa, x2 = 0.6863 | 747.08 | –
14000 kPa, x2 = 0.8711 | – | 758.02
14010 kPa, x2 = 0.1391 | 720.12 | 711.65
14010 kPa, x2 = 0.3001 | – | 716.18
14020 kPa, x2 = 0.1907 | 721.64 | –
14020 kPa, x2 = 0.4326 | – | 720.92
14020 kPa, x2 = 0.6863 | – | 737.27
14020 kPa, x2 = 0.8711 | 767.51 | –
15000 kPa, x2 = 0.4326 | 731.33 | –
15000 kPa, x2 = 0.6863 | 747.92 | –
15000 kPa, x2 = 0.8711 | 768.36 | –
15010 kPa, x2 = 0.1391 | 720.95 | 712.53
15010 kPa, x2 = 0.1907 | – | 713.82
15010 kPa, x2 = 0.3001 | 726.5 | –
15010 kPa, x2 = 0.4326 | – | 721.82
15010 kPa, x2 = 0.6863 | – | 738.18
15010 kPa, x2 = 0.8711 | – | 758.93
15020 kPa, x2 = 0.1907 | 722.47 | –
15020 kPa, x2 = 0.3001 | – | 717.1
16000 kPa, x2 = 0.1907 | 723.29 | –
16000 kPa, x2 = 0.6863 | 748.78 | –
16000 kPa, x2 = 0.8711 | 769.18 | –
16010 kPa, x2 = 0.1391 | 721.76 | 713.4
16010 kPa, x2 = 0.1907 | – | 714.7
16010 kPa, x2 = 0.3001 | 727.33 | 717.99
16010 kPa, x2 = 0.4326 | 732.15 | 722.73
16010 kPa, x2 = 0.6863 | – | 739.1
16020 kPa, x2 = 0.8711 | – | 759.81
17000 kPa, x2 = 0.1391 | 722.56 | –
17000 kPa, x2 = 0.6863 | 749.59 | 740
17000 kPa, x2 = 0.8711 | – | 760.7
17010 kPa, x2 = 0.1907 | 724.12 | –
17010 kPa, x2 = 0.3001 | – | 718.88
17010 kPa, x2 = 0.4326 | 732.96 | 723.6
17010 kPa, x2 = 0.8711 | 770.01 | –
17020 kPa, x2 = 0.1391 | – | 714.27
17020 kPa, x2 = 0.1907 | – | 715.58
17020 kPa, x2 = 0.3001 | 728.15 | –
18000 kPa, x2 = 0.1391 | – | 715.12
18000 kPa, x2 = 0.1907 | – | 716.42
18000 kPa, x2 = 0.3001 | – | 719.72
18000 kPa, x2 = 0.4326 | – | 724.49
18000 kPa, x2 = 0.6863 | – | 740.88
18010 kPa, x2 = 0.1391 | 723.35 | –
18010 kPa, x2 = 0.3001 | 728.94 | –
18010 kPa, x2 = 0.4326 | 733.77 | –
18010 kPa, x2 = 0.6863 | 750.41 | –
18010 kPa, x2 = 0.8711 | 770.81 | –
18020 kPa, x2 = 0.1907 | 724.91 | –
18020 kPa, x2 = 0.8711 | – | 761.56
19000 kPa, x2 = 0.4326 | 734.57 | –
19010 kPa, x2 = 0.1391 | – | 715.93
19010 kPa, x2 = 0.1907 | 725.67 | 717.24
19010 kPa, x2 = 0.3001 | 729.72 | –
19010 kPa, x2 = 0.4326 | – | 725.32
19010 kPa, x2 = 0.6863 | 751.21 | 741.72
19010 kPa, x2 = 0.8711 | 771.61 | –
19020 kPa, x2 = 0.1391 | 724.11 | –
19020 kPa, x2 = 0.3001 | – | 720.57
19020 kPa, x2 = 0.8711 | – | 762.39
20000 kPa, x2 = 0.3001 | – | 721.37
20010 kPa, x2 = 0.1391 | 724.85 | –
20010 kPa, x2 = 0.1907 | 726.42 | 718.03
20010 kPa, x2 = 0.4326 | 735.37 | –
20010 kPa, x2 = 0.6863 | – | 742.58
20010 kPa, x2 = 0.8711 | 772.39 | 763.23
20020 kPa, x2 = 0.1391 | – | 716.72
20020 kPa, x2 = 0.3001 | 730.47 | –
20020 kPa, x2 = 0.4326 | – | 726.17
20020 kPa, x2 = 0.6863 | 752 | –
